Source: ChEMBL document CHEMBL4804284

Legend:
Design in all cases: scale not given: the % may be the effect or the level left
[1] = target: Calcium/calmodulin-dependent protein kinase type 1D (Homo sapiens) (UniProt Q8IU85); test: Inhibition of DNA-tagged human CAMK1D assessed as percent of control at 50000 nM by qPCR analysis relative to control
[2] = target: Ribosomal protein S6 kinase alpha-6 (Homo sapiens) (UniProt Q9UK32); test: Inhibition of DNA-tagged human N-terminal RSK4 kinase domain 1 assessed as percent of control at 50000 nM by qPCR analysis relative to control
Chain of Ribosomal protein S6 kinase alpha-6 (Homo sapiens) (Q9UK32 whole entry, the tested form may be a part): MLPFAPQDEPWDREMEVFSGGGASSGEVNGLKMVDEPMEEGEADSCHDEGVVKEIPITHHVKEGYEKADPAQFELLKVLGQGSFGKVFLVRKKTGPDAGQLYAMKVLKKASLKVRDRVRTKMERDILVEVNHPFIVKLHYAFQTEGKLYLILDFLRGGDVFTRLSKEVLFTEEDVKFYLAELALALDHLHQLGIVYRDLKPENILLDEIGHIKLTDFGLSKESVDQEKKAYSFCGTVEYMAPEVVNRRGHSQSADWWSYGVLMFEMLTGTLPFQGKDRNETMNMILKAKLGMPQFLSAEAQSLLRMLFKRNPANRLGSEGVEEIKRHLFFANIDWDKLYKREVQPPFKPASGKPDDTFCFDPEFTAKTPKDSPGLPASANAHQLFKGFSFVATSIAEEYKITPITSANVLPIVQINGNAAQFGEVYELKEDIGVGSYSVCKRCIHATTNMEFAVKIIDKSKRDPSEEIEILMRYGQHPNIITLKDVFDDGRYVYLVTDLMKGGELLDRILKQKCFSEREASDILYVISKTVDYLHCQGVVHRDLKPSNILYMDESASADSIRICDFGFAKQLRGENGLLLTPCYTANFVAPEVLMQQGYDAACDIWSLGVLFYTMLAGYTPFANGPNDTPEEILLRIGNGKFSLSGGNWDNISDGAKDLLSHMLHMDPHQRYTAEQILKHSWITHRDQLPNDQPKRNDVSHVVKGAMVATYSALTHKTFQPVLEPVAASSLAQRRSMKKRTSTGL

[3] = target: Fibroblast growth factor receptor 2 (Homo sapiens) (UniProt P21802); test: Inhibition of DNA-tagged human FGFR2 assessed as percent of control at 50000 nM by qPCR analysis relative to control
[4] = target: Ephrin type-A receptor 3 (Homo sapiens) (UniProt P29320); test: Inhibition of DNA-tagged human EPHA3 assessed as percent of control at 50000 nM by qPCR analysis relative to control
[5] = target: Phosphatidylinositol 3-kinase C2 domain-containing subunit gamma (Homo sapiens) (UniProt O75747); test: Inhibition of DNA-tagged human PIK3C2G assessed as percent of control at 50000 nM by qPCR analysis relative to control
Chain of Phosphatidylinositol 3-kinase C2 domain-containing subunit gamma (Homo sapiens) (O75747 whole entry, the tested form may be a part): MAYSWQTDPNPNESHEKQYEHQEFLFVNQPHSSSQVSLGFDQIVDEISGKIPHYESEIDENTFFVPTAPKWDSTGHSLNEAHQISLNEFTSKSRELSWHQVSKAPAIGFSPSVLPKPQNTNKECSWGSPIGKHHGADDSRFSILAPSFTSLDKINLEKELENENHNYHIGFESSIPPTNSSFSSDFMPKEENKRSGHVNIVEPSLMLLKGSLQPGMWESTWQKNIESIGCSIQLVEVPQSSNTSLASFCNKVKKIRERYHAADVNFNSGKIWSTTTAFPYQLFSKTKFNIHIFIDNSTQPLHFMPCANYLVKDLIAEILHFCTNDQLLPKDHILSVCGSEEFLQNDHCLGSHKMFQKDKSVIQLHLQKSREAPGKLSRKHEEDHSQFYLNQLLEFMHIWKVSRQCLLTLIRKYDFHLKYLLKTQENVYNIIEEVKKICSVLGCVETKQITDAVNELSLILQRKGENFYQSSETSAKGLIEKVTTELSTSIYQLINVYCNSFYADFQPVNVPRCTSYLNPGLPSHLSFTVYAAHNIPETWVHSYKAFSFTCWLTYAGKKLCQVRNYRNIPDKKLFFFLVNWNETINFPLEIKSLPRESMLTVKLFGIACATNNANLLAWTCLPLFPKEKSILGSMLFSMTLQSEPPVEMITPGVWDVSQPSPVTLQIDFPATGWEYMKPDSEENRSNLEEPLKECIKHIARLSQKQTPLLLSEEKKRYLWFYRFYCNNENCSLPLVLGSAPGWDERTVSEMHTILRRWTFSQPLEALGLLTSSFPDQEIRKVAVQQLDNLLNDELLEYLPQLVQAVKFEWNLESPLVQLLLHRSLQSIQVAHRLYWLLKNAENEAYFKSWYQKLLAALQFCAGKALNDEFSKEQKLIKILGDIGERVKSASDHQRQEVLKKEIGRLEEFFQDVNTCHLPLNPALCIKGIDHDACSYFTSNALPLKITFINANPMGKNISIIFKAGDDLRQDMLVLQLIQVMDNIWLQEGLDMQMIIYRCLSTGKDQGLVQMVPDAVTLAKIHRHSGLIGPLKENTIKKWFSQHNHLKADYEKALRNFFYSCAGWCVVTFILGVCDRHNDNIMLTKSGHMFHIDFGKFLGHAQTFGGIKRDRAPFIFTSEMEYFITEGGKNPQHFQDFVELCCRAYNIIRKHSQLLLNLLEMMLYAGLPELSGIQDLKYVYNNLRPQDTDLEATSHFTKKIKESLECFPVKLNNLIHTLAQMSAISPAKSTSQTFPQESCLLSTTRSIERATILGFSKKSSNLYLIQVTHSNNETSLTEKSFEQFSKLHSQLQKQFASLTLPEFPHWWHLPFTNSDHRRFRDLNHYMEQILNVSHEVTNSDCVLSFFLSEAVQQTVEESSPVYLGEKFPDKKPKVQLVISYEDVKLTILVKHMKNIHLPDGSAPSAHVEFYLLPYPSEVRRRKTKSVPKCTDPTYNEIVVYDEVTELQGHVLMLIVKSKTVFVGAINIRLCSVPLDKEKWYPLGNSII

[6] = target: Bone morphogenetic protein receptor type-1B (Homo sapiens) (UniProt O00238); test: Inhibition of DNA-tagged human BMPR1B assessed as percent of control at 50000 nM by qPCR analysis relative to control
[7] = target: Ribosomal protein S6 kinase alpha-6 (Homo sapiens) (UniProt Q9UK32); test: Inhibition of DNA-tagged human C-terminal RSK4 kinase domain 2 assessed as percent of control at 50000 nM by qPCR analysis relative to control
[8] = test system: Serine/threonine-protein kinase B-raf (Homo sapiens), P15056 [V600E]; test: Inhibition of DNA-tagged human BRAF V600E mutant assessed as percent of control at 50000 nM by qPCR analysis relative to control
[9] = target: Dual specificity testis-specific protein kinase 1 (Homo sapiens) (UniProt Q15569); test: Inhibition of DNA-tagged human TESK1 assessed as percent of control at 50000 nM by qPCR analysis relative to control
[10] = target: Mitogen-activated protein kinase kinase kinase 11 (Homo sapiens) (UniProt Q16584); test: Inhibition of DNA-tagged human MLK3 assessed as percent of control at 50000 nM by qPCR analysis relative to control
Chain of Mitogen-activated protein kinase kinase kinase 11 (Homo sapiens) (Q16584 whole entry, looked up): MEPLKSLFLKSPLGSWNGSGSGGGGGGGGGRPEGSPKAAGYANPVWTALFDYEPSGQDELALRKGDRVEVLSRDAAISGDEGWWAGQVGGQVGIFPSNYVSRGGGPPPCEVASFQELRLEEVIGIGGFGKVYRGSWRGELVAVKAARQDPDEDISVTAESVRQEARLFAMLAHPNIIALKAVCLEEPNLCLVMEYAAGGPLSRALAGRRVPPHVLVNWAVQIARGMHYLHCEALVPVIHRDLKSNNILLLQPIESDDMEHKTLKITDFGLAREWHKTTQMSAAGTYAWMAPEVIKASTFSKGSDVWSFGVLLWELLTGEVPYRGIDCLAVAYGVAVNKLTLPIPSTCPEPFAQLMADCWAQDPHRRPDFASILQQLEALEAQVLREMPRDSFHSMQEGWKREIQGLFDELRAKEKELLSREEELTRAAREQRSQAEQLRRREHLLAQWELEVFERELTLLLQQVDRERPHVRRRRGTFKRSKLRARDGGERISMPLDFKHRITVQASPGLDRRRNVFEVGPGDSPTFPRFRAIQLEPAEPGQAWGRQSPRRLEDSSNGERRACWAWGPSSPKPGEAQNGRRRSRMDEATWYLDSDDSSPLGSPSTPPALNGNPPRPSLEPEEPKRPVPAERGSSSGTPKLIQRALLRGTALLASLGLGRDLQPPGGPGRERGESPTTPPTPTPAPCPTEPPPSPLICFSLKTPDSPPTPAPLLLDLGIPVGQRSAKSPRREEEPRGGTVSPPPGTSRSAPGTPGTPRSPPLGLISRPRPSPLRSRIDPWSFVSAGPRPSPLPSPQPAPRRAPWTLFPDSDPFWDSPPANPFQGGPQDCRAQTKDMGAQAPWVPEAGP

[11] = target: Serine/threonine-protein kinase NIM1 (Homo sapiens) (UniProt Q8IY84); test: Inhibition of DNA-tagged human NIM1 assessed as percent of control at 50000 nM by qPCR analysis relative to control
[12] = target: Glycogen synthase kinase-3 beta (Homo sapiens) (UniProt P49841); test: Inhibition of DNA-tagged human GSK3B assessed as percent of control at 50000 nM by qPCR analysis relative to control
[13] = target: Mitogen-activated protein kinase kinase kinase 5 (Homo sapiens) (UniProt Q99683); test: Inhibition of DNA-tagged human ASK1 assessed as percent of control at 50000 nM by qPCR analysis relative to control
[14] = target: Calcium/calmodulin-dependent protein kinase kinase 2 (Homo sapiens) (UniProt Q96RR4); test: Inhibition of DNA-tagged human CAMKK2 assessed as percent of control at 50000 nM by qPCR analysis relative to control
[15] = test system: Leucine-rich repeat serine/threonine-protein kinase 2 (Homo sapiens), Q5S007 [G2019S]; test: Inhibition of DNA-tagged human LRRK2 G2019S mutant assessed as percent of control at 50000 nM by qPCR analysis relative to control
[16] = target: Ephrin type-A receptor 4 (Homo sapiens) (UniProt P54764); test: Inhibition of DNA-tagged human EPHA4 assessed as percent of control at 50000 nM by qPCR analysis relative to control
[17] = target: Serine/threonine-protein kinase SIK3 (Homo sapiens) (UniProt Q9Y2K2); test: Inhibition of DNA-tagged human QSK assessed as percent of control at 50000 nM by qPCR analysis relative to control
[18] = target: RAC-gamma serine/threonine-protein kinase (Homo sapiens) (UniProt Q9Y243); test: Inhibition of DNA-tagged human AKT3 assessed as percent of control at 50000 nM by qPCR analysis relative to control
Chain of RAC-gamma serine/threonine-protein kinase (Homo sapiens) (Q9Y243 whole entry): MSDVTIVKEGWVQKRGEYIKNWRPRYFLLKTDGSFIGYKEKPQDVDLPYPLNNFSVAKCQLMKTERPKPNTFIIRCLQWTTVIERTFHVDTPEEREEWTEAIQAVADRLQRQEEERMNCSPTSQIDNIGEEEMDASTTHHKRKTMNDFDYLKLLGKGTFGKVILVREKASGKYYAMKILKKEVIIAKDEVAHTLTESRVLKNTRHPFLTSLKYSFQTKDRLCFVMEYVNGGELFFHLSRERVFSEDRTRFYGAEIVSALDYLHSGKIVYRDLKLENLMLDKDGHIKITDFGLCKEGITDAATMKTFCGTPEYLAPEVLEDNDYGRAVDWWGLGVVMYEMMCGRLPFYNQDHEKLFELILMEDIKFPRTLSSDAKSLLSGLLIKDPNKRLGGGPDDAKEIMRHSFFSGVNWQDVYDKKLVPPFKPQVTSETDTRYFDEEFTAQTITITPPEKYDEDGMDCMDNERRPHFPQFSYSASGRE

[19] = target: Calcium/calmodulin-dependent protein kinase type 1G (Homo sapiens) (UniProt Q96NX5); test: Inhibition of DNA-tagged human CAMK1G assessed as percent of control at 50000 nM by qPCR analysis relative to control
Chain of Calcium/calmodulin-dependent protein kinase type 1G (Homo sapiens) (Q96NX5 whole entry): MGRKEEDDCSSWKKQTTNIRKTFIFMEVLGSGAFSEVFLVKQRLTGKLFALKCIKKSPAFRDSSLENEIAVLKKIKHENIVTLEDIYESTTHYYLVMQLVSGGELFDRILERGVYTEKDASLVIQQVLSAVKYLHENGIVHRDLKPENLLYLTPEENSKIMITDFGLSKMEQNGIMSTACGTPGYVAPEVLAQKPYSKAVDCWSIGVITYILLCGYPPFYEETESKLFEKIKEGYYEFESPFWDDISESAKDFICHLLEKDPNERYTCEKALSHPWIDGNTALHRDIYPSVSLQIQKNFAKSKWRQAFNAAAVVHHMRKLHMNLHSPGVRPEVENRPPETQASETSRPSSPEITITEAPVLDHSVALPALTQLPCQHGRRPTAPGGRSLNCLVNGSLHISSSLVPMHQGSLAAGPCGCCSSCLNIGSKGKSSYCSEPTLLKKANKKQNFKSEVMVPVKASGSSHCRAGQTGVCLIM

[20] = target: Mitogen-activated protein kinase kinase kinase kinase 4 (Homo sapiens) (UniProt O95819); test: Inhibition of DNA-tagged human MAP4K4 assessed as percent of control at 50000 nM by qPCR analysis relative to control
[21] = target: Peripheral plasma membrane protein CASK (Homo sapiens) (UniProt O14936); test: Inhibition of DNA-tagged human CASK assessed as percent of control at 50000 nM by qPCR analysis relative to control
[22] = target: Ribosomal protein S6 kinase alpha-1 (Homo sapiens) (UniProt Q15418); test: Inhibition of DNA-tagged human N-terminal RSK1 kinase domain 1 assessed as percent of control at 50000 nM by qPCR analysis relative to control
[23] = target: Protein-tyrosine kinase 6 (Homo sapiens) (UniProt Q13882); test: Inhibition of DNA-tagged human BRK assessed as percent of control at 50000 nM by qPCR analysis relative to control
[24] = target: Cyclin-G-associated kinase (Homo sapiens) (UniProt O14976); test: Inhibition of DNA-tagged human GAK assessed as percent of control at 50000 nM by qPCR analysis relative to control
[25] = target: Phosphatidylinositol 4-kinase beta (Homo sapiens) (UniProt Q9UBF8); test: Inhibition of DNA-tagged human PIK4CB assessed as percent of control at 50000 nM by qPCR analysis relative to control
Chain of Phosphatidylinositol 4-kinase beta (Homo sapiens) (Q9UBF8 2-816 limits assumed): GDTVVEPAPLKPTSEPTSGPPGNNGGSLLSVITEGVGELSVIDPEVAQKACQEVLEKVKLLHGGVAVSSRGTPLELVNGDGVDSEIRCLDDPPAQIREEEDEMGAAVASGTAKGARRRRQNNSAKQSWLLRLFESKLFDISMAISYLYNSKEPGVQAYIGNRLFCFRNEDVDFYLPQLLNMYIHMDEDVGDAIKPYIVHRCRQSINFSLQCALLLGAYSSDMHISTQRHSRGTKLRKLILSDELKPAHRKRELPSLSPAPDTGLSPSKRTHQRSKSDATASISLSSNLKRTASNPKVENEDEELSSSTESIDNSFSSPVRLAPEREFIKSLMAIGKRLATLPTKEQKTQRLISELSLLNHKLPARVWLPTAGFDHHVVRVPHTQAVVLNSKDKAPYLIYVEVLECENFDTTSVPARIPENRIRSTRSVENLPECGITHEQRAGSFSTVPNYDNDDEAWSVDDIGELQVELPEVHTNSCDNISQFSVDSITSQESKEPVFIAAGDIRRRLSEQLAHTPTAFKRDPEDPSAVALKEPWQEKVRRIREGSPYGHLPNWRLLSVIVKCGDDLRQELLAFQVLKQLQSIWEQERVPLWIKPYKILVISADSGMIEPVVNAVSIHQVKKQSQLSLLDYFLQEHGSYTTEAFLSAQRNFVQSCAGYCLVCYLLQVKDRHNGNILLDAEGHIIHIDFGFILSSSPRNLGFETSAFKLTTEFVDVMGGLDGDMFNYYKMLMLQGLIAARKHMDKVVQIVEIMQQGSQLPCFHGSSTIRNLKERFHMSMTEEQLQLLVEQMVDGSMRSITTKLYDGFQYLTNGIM

[26] = target: Macrophage-stimulating protein receptor (Homo sapiens) (UniProt Q04912); test: Inhibition of DNA-tagged human MST1R assessed as percent of control at 50000 nM by qPCR analysis relative to control
[27] = test system: Epidermal growth factor receptor (Homo sapiens), P00533 [UNDEFINED MUTATION]; test: Inhibition of DNA-tagged human EGFR E746-A750del mutant assessed as percent of control at 50000 nM by qPCR analysis relative to control
[28] = target: Tyrosine-protein kinase Fer (Homo sapiens) (UniProt P16591); test: Inhibition of DNA-tagged human FER assessed as percent of control at 50000 nM by qPCR analysis relative to control
[29] = target: Platelet-derived growth factor receptor beta (Homo sapiens) (UniProt P09619); test: Inhibition of DNA-tagged human PDGFRB assessed as percent of control at 50000 nM by qPCR analysis relative to control
[30] = target: Tyrosine-protein kinase ABL1 (Homo sapiens) (UniProt P00519); test: Inhibition of DNA-tagged phosphorylated human ABL1 assessed as percent of control at 50000 nM by qPCR analysis relative to control

Compound CN1C(=O)/C(=C2/C(=O)Nc3ccccc32)c2ccccc21 has an Activity [1] of 100%, an Activity [2] of 99% and an Activity [3] of 89%. It also gave an Activity [4] of 91%, an Activity [5] of 99% and an Activity [6] of 89%. The Activity [7] was 71%, the Activity [8] was 72% and the Activity [9] was 100%. For the same compound, the Activity [10] was 71%, the Activity [11] was 86% and the Activity [12] was 90%. For the same compound, the Activity [13] was 100%, the Activity [14] was 100% and the Activity [15] was 74%. It also gave an Activity [16] of 100%, an Activity [17] of 100% and an Activity [18] of 92%. It also gave an Activity [19] of 85%, an Activity [20] of 100% and an Activity [21] of 100%. It also gave an Activity [22] of 96%, an Activity [23] of 100% and an Activity [24] of 98%. It also gave an Activity [25] of 100%, an Activity [26] of 92% and an Activity [27] of 83%. The Activity [28] was 88%, the Activity [29] was 100% and the Activity [30] was 96%.
